In the supplement of paper PMC10307832:

Legend:
ALW-II-49-7 = compound: Cc1ccc(C(=O)Nc2cccc(C(F)(F)F)c2)cc1Nc1cncc(C(N)=O)c1 [ALW-II-49-7]; assay: relative viability (nuclei count vs DMSO), 5 days (fraction); higher = more cells survive
Summary of the method: (§1)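 Lung cancer cell lines in 1536-well plates were exposed by pinning to five library-drug doses (not always all listed) √10 apart, following an overnight hold at 37 °C. MetaXpress counted Hoechst-stained nuclei from 4× images taken after 5 days without medium change. Viability is the median ratio of treated-well to vehicle-well nuclei across plates. Plates required control CV below 25% and at least one doubling.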

Dasatinib = compound: Cc1nc(Nc2ncc(C(=O)Nc3c(C)cccc3Cl)s2)cc(N2CCN(CCO)CC2)n1 [Dasatinib]; assay: as above
Summary of the method: as §1

Cell Line	relative viability (ALW-II-49-7; 0.08 µM)	relative viability (ALW-II-49-7; 0.253 µM)	relative viability (ALW-II-49-7; 0.8 µM)	relative viability (ALW-II-49-7; 2.53 µM)	relative viability (ALW-II-49-7; 8 µM)	relative viability (Dasatinib; 0.005 µM)	relative viability (Dasatinib; 0.01581 µM)	relative viability (Dasatinib; 0.05 µM)	relative viability (Dasatinib; 0.075 µM, anchor plate)	relative viability (Dasatinib; 0.1581 µM)	relative viability (Dasatinib; 0.5 µM)
NCI-H1623	0.934	0.903	0.947	0.967	0.91	0.97	0.851	0.935	0.542	0.767	0.564
HCC-827	1.02	1.03	1.02	1.02	1.02	1.05	0.926	1.04	0.324	0.953	0.126
NCI-H322M	0.879	1.08	0.957	0.906	0.805	0.892	0.827	0.526	0.257	0.319	0.216
ChaGo-K-1	1.03	0.96	0.909	0.974	1.01	0.967	0.976	0.897	0.597	0.859	0.686
BEN	1.04	1.01	0.728	0.825	0.902	0.776	0.552	0.487	0.322	0.423	0.376
NCI-H2347	1.05	0.968	1.04	0.973	0.949	0.913	0.838	0.659	0.314	0.452	0.333
LOU-NH91	0.939	1.03	0.951	0.654	0.837	0.839	0.893	0.724	0.558	0.587	0.422
NCI-H2228	1.09	0.783	0.735	0.904	0.85	0.994	0.869	0.94	0.535	0.645	0.442
NCI-H2342	0.866	1.04	0.98	0.925	0.951	0.967	0.632	0.834	0.311	0.535	0.309
HCC-366	1.03	1.05	1.09	1.04	0.855	0.805	0.748	0.608	0.682	0.728	0.52
NCI-H2405	1.01	1.06	0.961	0.963	0.802	0.842	0.726	0.533	0.205	0.305	0.222
Calu-6	0.952	1.03	0.947	0.891	0.869	0.895	0.766	0.712	–	0.627	0.554
201T	0.979	1.04	0.915	1.02	0.838	0.991	0.766	0.82	0.583	0.602	0.417
CAL-12T	0.952	0.96	1.03	1.02	0.928	1.02	0.998	1.12	0.486	0.795	0.416
HCC-44	0.971	1.06	0.969	1.03	0.957	1.12	0.994	1.04	–	0.961	0.533
NCI-H358	0.891	0.956	0.924	1.01	1.07	0.867	0.695	0.593	0.165	0.248	0.163
SW 900	0.826	0.975	0.736	1.03	0.622	0.67	0.733	0.647	0.701	0.405	0.254
NCI-H2087	1.07	1.01	1.06	1.02	0.915	1.02	0.941	1.23	0.856	0.937	0.453
COR-L 105	0.822	1.05	0.968	0.942	0.893	0.847	0.692	0.625	0.386	0.39	0.326
LCLC-97TM1	0.97	0.905	1.09	0.755	0.865	1.17	0.97	1.05	0.837	1	0.561
NCI-H520	1.04	0.987	0.987	0.94	0.964	0.785	0.592	0.518	0.21	0.257	0.243

Cell Line	relative viability (ALW-II-49-7; 0.08 µM)	relative viability (ALW-II-49-7; 0.253 µM)	relative viability (ALW-II-49-7; 0.8 µM)	relative viability (ALW-II-49-7; 2.53 µM)	relative viability (ALW-II-49-7; 8 µM)	relative viability (Dasatinib; 0.005 µM)	relative viability (Dasatinib; 0.01581 µM)	relative viability (Dasatinib; 0.05 µM)	relative viability (Dasatinib; 0.075 µM, anchor plate)	relative viability (Dasatinib; 0.1581 µM)	relative viability (Dasatinib; 0.5 µM)
NCI-H1993	0.899	0.952	1.07	1.07	1.01	0.793	0.653	0.856	0.625	0.736	0.507
NCI-H1437	0.985	0.989	0.973	0.994	0.947	1.05	1.05	1.04	0.443	0.887	0.348
LC-2-ad	0.942	1.03	0.922	1.08	0.861	1	0.984	0.924	0.601	0.674	0.35
HARA	0.87	0.777	0.987	1.17	0.846	0.797	0.73	0.647	0.288	0.3	0.175
NCI-H650	0.992	0.997	0.841	1.03	0.647	0.876	0.936	0.861	0.475	0.712	0.5
NCI-H1975	0.956	0.996	0.757	0.855	0.841	0.83	0.768	0.78	0.378	0.545	0.282
NCI-H2085	1.01	1.05	0.985	1.03	0.995	0.981	0.904	0.804	0.255	0.356	0.218
NCI-H3122	1.05	0.868	1.06	1.05	1.07	1.02	1.04	1.06	0.766	1.01	0.87
NCI-H1651	1.09	0.923	0.956	0.952	0.943	1.01	0.902	0.91	0.391	0.817	0.758
NCI-H522	0.968	0.938	0.994	1.2	1.03	0.964	0.829	0.801	0.904	0.768	0.758
NCI-H441	1.2	0.868	0.913	0.902	0.762	1.03	0.997	1.11	0.675	0.636	0.338
ABC-1	0.938	0.999	0.923	0.973	0.941	0.905	0.862	0.785	0.641	0.564	0.654
NCI-H2126	0.918	1.03	1.02	0.926	0.992	0.98	0.864	0.945	0.643	0.814	0.403
RERF-LC-KJ	1.02	1.06	0.997	0.911	0.939	1.01	0.928	0.944	0.781	0.841	0.704
NCI-H1563	0.962	0.993	0.957	0.941	0.887	0.901	0.703	0.735	0.465	0.619	0.584
NCI-H1666	0.988	0.943	0.92	1.24	1.04	0.995	1	1.02	0.851	0.829	0.478
PC-14	0.933	0.98	0.95	0.961	0.898	1.12	0.98	0.877	0.264	0.65	0.234
NCI-H1915	0.993	1.01	0.945	0.85	0.544	0.966	0.987	0.903	0.315	0.492	0.256
NCI-H1703	0.982	0.981	0.734	0.429	0.434	0.482	0.457	0.311	–	0.177	0.148
NCI-H661	1.04	0.936	0.927	0.975	0.901	0.955	1.06	0.911	0.974	0.8	0.661
SK-MES-1	0.957	0.97	0.963	0.851	0.742	1.05	0.922	0.964	0.385	0.61	0.215

Cell Line	relative viability (ALW-II-49-7; 0.08 µM)	relative viability (ALW-II-49-7; 0.253 µM)	relative viability (ALW-II-49-7; 0.8 µM)	relative viability (ALW-II-49-7; 2.53 µM)	relative viability (ALW-II-49-7; 8 µM)	relative viability (Dasatinib; 0.005 µM)	relative viability (Dasatinib; 0.01581 µM)	relative viability (Dasatinib; 0.05 µM)	relative viability (Dasatinib; 0.075 µM, anchor plate)	relative viability (Dasatinib; 0.1581 µM)	relative viability (Dasatinib; 0.5 µM)
NCI-H1944	0.997	0.91	0.949	0.934	0.893	0.918	0.902	0.644	0.228	0.286	0.208
HCC-78	0.972	0.938	0.842	0.934	0.933	0.551	0.764	0.721	0.408	0.658	0.314
PC-3 [JPC-3]	1.08	1.04	1.04	1.13	0.971	1.08	1.01	1.04	0.971	1.02	0.59
LCLC-103H	0.983	0.987	0.971	0.953	0.969	0.997	0.855	0.82	0.475	0.669	0.382
EKVX	1.06	0.953	0.968	0.91	0.974	0.932	0.879	0.807	0.605	0.68	0.176
NCI-H460	1	1.07	0.944	1.02	0.882	0.949	0.897	0.856	0.529	0.73	0.605
NCI-H2170	1	0.969	0.973	0.908	0.966	0.961	0.914	0.784	0.61	0.585	0.378
NCI-H727	1.09	0.907	0.9	0.902	0.855	0.724	0.678	0.53	0.37	0.388	0.256
NCI-H838	0.945	0.901	0.903	0.982	0.918	0.87	0.676	0.532	0.307	0.38	0.289
NCI-H1792	0.679	0.873	0.915	0.73	0.654	0.844	0.773	0.643	0.827	0.653	0.277
H3255	1.12	0.999	1.04	0.904	0.808	0.971	1	0.881	0.402	0.812	0.433
EPLC-272H	1.01	0.702	0.945	0.977	0.86	0.965	0.916	0.882	0.356	0.71	0.295
NCI-H647	0.904	0.944	0.926	0.967	0.795	0.76	0.572	0.372	0.199	0.227	0.207
NCI-H1648	0.633	0.839	0.676	0.683	0.797	1.26	0.938	1.03	–	0.405	0.192
LXF-289	0.931	1.04	1.02	1.06	1.05	1.03	1.07	1.08	0.227	0.485	0.226
EBC-1	0.93	0.93	0.79	1	0.697	1.03	0.893	0.894	–	0.831	0.736
NCI-H1650	0.854	0.789	0.836	0.985	0.985	0.868	0.769	0.6	0.336	0.388	0.338
NCI-H1755	0.975	1.03	1.02	0.968	0.897	0.964	0.868	0.747	0.44	0.544	0.363
HCC-15	1.04	0.975	0.964	1.08	0.919	1.03	0.991	0.928	0.651	0.854	0.726
EMC-BAC-2	1.02	0.966	0.888	0.902	0.758	0.884	0.786	0.657	0.336	0.472	0.344
